Reference: patent publication US12544354B2 (RIKEN, priority 2019, dated 2026)

What was measured:
[1] = system: mitochondrial permeability transition pore (mPTP); assay: mPTP-opening inhibitory activity test (calcium retention capacity, CRC) in mitochondria isolated from mouse brain; type: biochemical; settings: for mPTP-Opening inhibitory activity at 1.0 μM compound concentration CRC/CRC (DMSO): mitochondria from C57B6J mouse brain, ratio of calcium required for mPTP-opening with compound vs DMSO control
Protocol: In this test, inhibitory effects of mPTP in mitochondria isolated from the brain were evaluated.
The mPTP-opening inhibitory activity and efficacy of test compounds are determined by evaluating inhibitory potency thereof against opening of mPTP formed of inner and outer mitochondrial membranes, by in-vitro assay described later.
The animal was humanely euthanized by cervical dislocation, and the brain was excised out. The brain excised out was put in an isolation buffer (280 mM sucrose, 10 mM 3-morpholinopropanesulfonic acid (MOPS), 1 mM ethylenediamine tetraacetic acid dipotassium salt (EDTA-2K), pH 7.2) cooled in ice. The brain was rinsed with the buffer cooled in ice and cut by scissors in the buffer put in a beaker placed on ice. The cut pieces were transferred to a Dounce glass homogenizer. The buffer was exchanged with an isolation buffer containing 12% Percoll, and the cut pieces were homogenized. The cut pieces were homogenized four times by use of a loose pestle and 8 times by use of a tight pestle while vertically rotating. The homogenate was gently overlaid on the layer formed of two portions different in density of Percoll (26%, 40%) in 50 ml-centrifuge tubes, which were then spun by a centrifuge (HITACHI CR22N, rotor R20A2) maintained at 4° C. at 30700×g for 5 minutes. The intermediate layer between the 26% layer and the 40% layer was carefully sucked by use of a 23 G needle, added in an isolation buffer (24 ml) previously cooled in ice, and spun by a centrifuge at 16700×g to allow mitochondria to precipitate as a pellet. The supernatant was gently discarded and the mitochondria was suspended. The amount of the mitochondrial suspension was measured and an aliquot of 20 μl was taken for determining protein concentration. To the mitochondrial suspension, 10 mg/ml BSA ([…]) was added and further an isolation buffer was added up to a volume of 1.2 ml (final concentration 1 mg/mL). The suspension was transferred to 2.0 ml tubes and then centrifuged. The supernatant was discarded and mitochondrial pellets were obtained and stored in ice. The protein amount of mitochondria was measured in accordance with the Bradford method.
To mitochondrial pellets isolated, a measurement buffer (210 mM sucrose, 20 mM potassium chloride, 3 mM glycylglycine and 1 mM potassium dihydrogen phosphate) containing a fluorescent calcium indicator, calcium green-5N (200 nM), was added to as to obtain a concentration of 150 μg/ml. In this manner, a mitochondrial suspension was prepared. Calcium green, which binds to calcium and emits fluorescence, is used as a probe for quantification. When calcium green is added to a mitochondrial suspension, the presence of calcium in the external fluid thereof can be detected. The mitochondrial suspension prepared by suspending mitochondria with the measurement buffer containing 400 nM calcium green was added in wells of a 96 well plate. To predetermined wells, a measurement buffer containing 40 mM glutamic acid, 4 mM malic acid and a double-concentration of test compound was added to prepare a mitochondrial suspension of 100 μl/well (final concentration: 20 mM glutamic acid, 2 mM malic acid). To the mitochondrial suspension in the wells of the 96 well plate, calcium was continuously added dropwise (10 μl of 117 μM CaCl2) was added in a rate of 100 μl/well, final concentration 11.7 μM), and the fluorescence value reflecting the amount of extramitochondrial calcium was determined ([…]). The measurement was carried out by a functional drug screening system, FDSS3000 (Hamamatsu Photonics K. K.). Incubation at 30° C. and shaking of the well plate were carried out by devices equipped in the system. Calcium (CaCl2)) was added at intervals of one minute in accordance with the program of FDSS3000 software.

PC12 cells = assay: Cell death inhibitory activity test: glutamic acid-induced cell death of PC12 cells (MTS assay); type: cell-based, rat; settings: test compound 1, 3, 10 or 30 μM, added 24 h before glutamic acid; cell viability by MTS 48 h later
Description: Simultaneously when mitochondria take up calcium, the membrane potential dissipates and mPTP opens. Physiologically, hydrogen peroxide generates in the mitochondrial respiratory chain with opening of mPTP and may further produce a damage to not only mitochondria but also cells. […] Oxidative stress ascribed to hydrogen peroxide may cause cell damage downstream of Ca uptake. In the test, the relationship between mPTP-opening inhibitory effect on cells and cell death was studied by using rat adrenal pheochromocytoma-derived PC12 cells.
The PC12 cells used in the test are derived from rat adrenal pheochromocytoma but are differentiated into sympathetic neurons by a nerve growth factor, and known to cause cell death in a glutamic acid concentration dependent manner (Pereira C F, Oliveira, R, Neuroscience Research, vol. 37(3), p. 227-236, 2000, Oxidative glutamate toxicity involves mitochondrial dysfunction and perturbation of intracellular Ca^2+ homeostasis).
A growth medium (composition: Dulbecco modified MEM culture medium (Gibco 11885-084) containing 100 units of penicillin, 100 μg/mL streptomycin (Gibco 15-140-122), 2.5% inactivated fetal bovine serum (Gibco 10437-028) and 2.5% inactivated horse serum (Gibco 16050-130)) were prepared. PC12 cells were cultured in a culture dish (diameter: 100 mm, Corning 353003) containing 10 ml of the growth medium. PC12 cells cryopreserved were thawed, cultured in the growth medium for at least one week and used in the test. PC12 cells were removed with 0.25% trypsin-1 mM EDTA and subcultured. The following experiments were all carried out at 37° C. by a CO2 incubator in an atmosphere containing 5% CO2. […]
After addition of MTS for CellTiter 96 ® AQueous One Solution Cell Proliferation Assay (Promega G3580)), the microplate was placed in a CO2 incubator and incubation was carried out for 4 hours. Absorbance of individual wells at a wavelength of 490 nm was measured by a spectrophotometer (SpectraMax i3 manufactured by Molecular Devices) with 700 nm used as a reference wavelength. A cell viability was calculated in accordance with the following expression (1) based on the absorbance obtained. Note that, to reduce background non-specific absorption due to excessive cell residue, culture medium and others, the obtained absorbance data were corrected based on the absorbance at a reference wavelength of 700 nm. […] Cell viability (%)=[(Abs−Abm)/(Abc−Abm)]×100 Expression (1) • Abs: Absorbance of sample (well containing cells, glutamic acid-added medium and MTS solution) • Abc: Absorbance of negative control (well containing cells, control medium and MTS solution) • Abm: Absorbance of blank (well containing control medium and MTS solution) (Suppression of Cell Death in the Presence of Test Compound) […]

[2] = system: local cerebral ischemia mouse model (pMCA-O); assay: Suppression test for cell death caused by cerebral ischemia: local cerebral ischemia mouse model by permanent middle cerebral artery occlusion (pMCA-O); settings: mice, 100 mg/kg intraperitoneal
Protocol: In the test, to evaluate the action of test compounds to protect cells from cell death in vivo, a local cerebral ischemia mouse model was prepared by permanent middle cerebral artery occlusion (pMCA-O) and actions of test compounds to protect the cells at a brain injury site one day after occlusion were examined. Note that, for preparing a permanent middle cerebral artery occlusion model, C57BL/6JJmsSlc was used.
As the solvent, dimethyl sulfoxide (DMSO: FUJIFILM Wako Pure Chemical Corporation), polyethylene glycol (PEG400: FUJIFILM Wako Pure Chemical Corporation) and phosphate buffered saline (PBS: FUJIFILM Wako Pure Chemical Corporation) were used. The final concentrations of DMSO, PEG400 and PBS were set to be 15%, 50% and 35%, respectively. […]
One day after cerebral ischemia, the head of each of the mice was removed under anesthesia with 2% isoflurane and the whole brain was carefully excised out. […] These brain sections were stained in physiological saline containing 10 mL of 2% 2,3,5-triphenyl tetrazolium chloride (TTC) (manufactured by Hayashi Pure Chemical Ind., Ltd.) for 30 minutes (Bederson, J B et al., Stroke, 1986, vol. 17, p. 1304-1308, Evaluation of 2,3,5-triphenyltetrazolium chloride as a stain for detection and quantification of experiment a cerebral Infarction in rats). […]
The size of a brain injury site was determined as follows.

SMILES: C[C@@]12OC(=O)[C@@H](C(=O)c3c(O)cccc31)[C@@H]2CC1=C(O)C(=O)C(C(N)=O)=C(O)C1=O [Compound I-1, 2,5-dihydroxy-4-(((1S,4R,10S)-6-hydroxy-1-methyl-3,5-dioxo-1,3,4,5-tetrahydro-1,4-methanobenzo[c]oxepin-10-yl)methyl)-3,6-dioxocyclohexa-1,4-dienocarboxamide]
- mPTP-Opening inhibitory activity at 1.0 μM compound concentration CRC/CRC (DMSO) [1]: 2.96
- concentration needed to inhibit mPTP-opening compared with cyclosporine A (FIG. 2) ([1]; dose response of CRC/CRC(DMSO), FIG. 2): at a lower concentration than cyclosporine A
- protection of PC12 cells from cell death induced by glutamic acid (FIG. 4) (PC12 cells): protected PC12 cells, to no small extent
- deaths of animals during the test period [2]: not seen
- average brain injury rate, lower than the control group ([2]; one day after cerebral ischemia, total brain injury rate P<0.05, cerebral cortex injury rate P<0.01): about 25%

SMILES: C[C@@]12OC(=O)[C@@H](C(=O)c3c(O)cccc31)[C@@H]2Cc1c(O)c(O)c(C(N)=O)c(O)c1O [Compound I-2, 2,3,5,6-tetrahydroxy-4-(((1S,4R,10S)-6-hydroxy-1-methyl-3,5-dioxo-1,3,4,5-tetrahydro-1,4-methanobenzo[c]oxepin-10-yl)methyl)benzamide]
- mPTP-Opening inhibitory activity at 1.0 μM compound concentration CRC/CRC (DMSO) [1]: 2.92

SMILES: CN(C)c1ccc(O)c2c1C[C@@H](CC1=C(O)C(=O)C(C(N)=O)=C(O)C1=O)CC2=O [Compound I-3, (S)-4-((8-(dimethylamino)-5-hydroxy-4-oxo-1,2,3,4-tetrahydronaphthalen-2-yl)methyl)-2,5-dihydroxy-3,6-dioxocyclohexa-1,4-dienecarboxamide]
- mPTP-Opening inhibitory activity at 1.0 μM compound concentration CRC/CRC (DMSO) [1]: 1.22

SMILES: CC(=O)Oc1cccc2c1C(=O)[C@@H]1C(=O)O[C@@]2(C)[C@H]1Cc1c(OC(C)=O)c(OC(C)=O)c(C(N)=O)c(OC(C)=O)c1OC(C)=O [Compound I-4, 3-(((1S,4R,10S)-6-acetoxy-1-methyl-3,5-dioxo-1,3,4,5-tetrahydro-1,4-methanobenzo[c]oxepin-10-yl)methyl)-6-carbamoyl benzene-1,2,4,5-tetraryl tetraacetate]
- protection of PC12 cells from cell death induced by glutamic acid (FIG. 4) (PC12 cells): stronger protective actions

SMILES: CC(C)(C)C(=O)Oc1cccc2c1C(=O)[C@@H]1C(=O)O[C@@]2(C)[C@H]1Cc1c(OC(=O)C(C)(C)C)c(OC(=O)C(C)(C)C)c(C#N)c(OC(=O)C(C)(C)C)c1OC(=O)C(C)(C)C [Compound I-5]
- protection of PC12 cells from cell death induced by glutamic acid (FIG. 4) (PC12 cells): stronger protective actions

SMILES: C[C@@]12OC(=O)[C@@H](C(=O)c3c(OC(=O)c4ccccc4)cccc31)[C@@H]2Cc1c(OC(=O)c2ccccc2)c(OC(=O)c2ccccc2)c(C(N)=O)c(OC(=O)c2ccccc2)c1OC(=O)c1ccccc1 [Compound I-6, 3-(((1S,4R,10S)-6-(benzoyloxy)-1-methyl-3,5-dioxo-1,3,4,5-tetrahydro-1,4-methanobenzo[c]oxepin-10-yl)methyl)-6-carbamoyl benzene-1,2,4,5-tetraryl tetrabenzoate)]
- protection of PC12 cells from cell death induced by glutamic acid (FIG. 4) (PC12 cells): stronger protective actions

SMILES: C[C@@]12OC(=O)[C@@H](C(=O)c3c(O)ccc(Cl)c31)[C@@H]2CC1=C(O)C(=O)C(C(N)=O)=C(O)C1=O [Compound Ia-1, 4-(((1S,4R,10S)-9-chloro-6-hydroxy-1-methyl-3,5-dioxo-1,3,4,5-tetrahydro-1,4-methanobenzo[c]oxepin-10-yl)methyl)-2,5-dihydro-3,6-dioxohexa-1,4-dienecarboxamide]
- mPTP-Opening inhibitory activity at 1.0 μM compound concentration CRC/CRC (DMSO) [1]: 1.66

SMILES: C[C@@]12OC(=O)[C@@H](C(=O)c3c(O)ccc(Cl)c31)[C@@H]2Cc1c(O)c(O)c(C(N)=O)c(O)c1O [Compound Ia-2, 4-(((1S,4R,10S)-9-chloro-6-hydroxy-1-methyl-3,5-dioxo-1,3,4,5-tetrahydro-1,4-methanobenzo[c]oxepin-10-yl)methyl)-2,3,5,6-tetrahydroxybenzamide]
- mPTP-Opening inhibitory activity at 1.0 μM compound concentration CRC/CRC (DMSO) [1]: 1.50

SMILES: C[C@@H]1c2cccc(O)c2C(=O)C[C@@H]1CC1=C(O)C(=O)C(C(N)=O)=C(O)C1=O [Compound Ia-3, 2,5-dihydroxy-4-(((1S,2S)-5-hydroxy-1-methyl-4-oxo-1,2,3,4-tetrahydronaphthalen-2-yl)methyl)-3,6-dioxocyclohexa-1,4-dienecarboxamide]
- mPTP-Opening inhibitory activity at 1.0 μM compound concentration CRC/CRC (DMSO) [1]: 3.00

SMILES: C[C@@]12OC(=O)[C@@H](C(=O)c3c(O)cccc31)[C@@H]2CC1=C(O)C(=O)C(C#N)=C(O)C1=O [Compound Ia-4, 2,5-dihydroxy-4-(((1S,4R,10S)-6-hydroxy-1-methyl-3,5-dioxo-1,3,4,5-tetrahydro-1,4-methanobenzo[c]oxepin-10-yl)methyl)-3,6-dioxocyclohexa-1,4-dienocarbonitrile]
- mPTP-Opening inhibitory activity at 1.0 μM compound concentration CRC/CRC (DMSO) [1]: 1.59
